Results reported in patent US20090269796A1, “METHODS OF DETECTING AND TREATING MYOCARDIAL ISCHEMIA AND MYOCARDIAL INFARCTION” (THE GENERAL HOSPITAL CORPORATION, priority 2007, published 2009).

Test system: not listed separately
Assay: Simultaneous coronary sinus and peripheral plasma sampling after planned MI (13-patient subgroup), LC-MS/MS profiling
Assay type: in vivo, human
Conditions: elevated earlier in coronary sinus, FIG. 4 top panel
Method: Blood was drawn at baseline (just prior to the onset of the ablation) and at minutes, 1 hour, 2 hours, 4 hours and 24 hours following the onset of injury as depicted in FIG. 1. 13 of the 36 patients consented to the placement of a coronary sinus catheter during the ablation, allowing for the simultaneous sampling from coronary sinus and femoral catheters at the baseline, 10-minute and 1-hour time points. The coronary sinus catheter was subsequently removed prior to the patient leaving the catheterization suite.
Samples were obtained from femoral venous catheters during the procedure or, where indicated, from a catheter placed in the coronary sinus. Samples were collected in K2EDTA-treated tubes (Becton Dickinson). All blood samples were centrifuged at 2000×g for 10 minutes to pellet cellular elements. The supernatant plasma was then aliquoted and immediately frozen at −80° C. to minimize freeze-thaw degradation. Additional blood samples were sent to the clinical chemistry laboratory for evaluation of the standard cardiac markers creatine kinase (CK), CK-MB, and Troponin T (Roche Diagnostics).
The specificity of the findings described above was further examined by exploring the anatomic origin of the metabolic changes. […]

SMILES	Time after injury until elevation evident in the periphery [min]
O=P(O)(O)OCC(O)CO (stereo not drawn) [Glycerol-3-P, glycerol-3-phosphate]	120
O=C(O)CC(O)C(=O)O (stereo not drawn) [Malic Acid]	120

Test system: not listed separately
Assay: Metabolite changes in peripheral plasma after planned MI (alcohol septal ablation), LC-MS/MS profiling
Assay type: in vivo, human
Conditions: FIG. 3, lower panel
From the text: A total of 36 patients undergoing planned MI using alcohol septal ablation for the treatment of symptomatic hypertrophic obstructive cardiomyopathy (HOCM) were included. Inclusion criteria for the cohort were: 1) primary HOCM; 2) septal thickness of 16 mm or greater; 3) resting outflow tract gradient of greater than 30 mmHg, or an inducible outflow tract gradient of at least 50 mm Hg; 4) symptoms refractory to optimal medical therapy; and 5) appropriate coronary anatomy. The most proximal accessible septal branch was instrumented using standard angioplasty guiding catheters and guidewires and 1.5 or 2.0 mm×9 mm Maverick™ balloon catheters. Radiographic and echocardiographic contrast injections confirmed proper selection of the septal branch and balloon catheter position. Ethanol was infused through the balloon catheter at 1 ml per minute. Additional injections in the same or other septal branches were administered as needed, causing cessation of blood flow to the isolated myocardium, and to reduce the gradient to <20 mmHg.^16 […]
The three HPLC columns were connected in parallel via an automated switching valve on a robotic sample loader (Leap Technologies) to a triple quadrupole mass spectrometer (AB4000Q, Applied Biosystem/Sciex), operated in electrospray ionization mode using a turbo ion spray LC/MS interface. […] A total of 210 known metabolites were monitored for each sample. […]

SMILES	Kinetic pattern of change in peripheral plasma after planned MI
Nc1ccccc1C(=O)O [anthanilic acid]	Later-appearing
CN(CC(=O)O)C(=N)N [creatine]	Later-appearing

Test system: Neonatal rat cardiomyocytes
Assay: Hypoxia-induced apoptosis (annexin V) of cardiomyocytes pretreated with individual metabolites
Assay type: cell-based
Conditions: metabolite added 5 minutes before 3 hours hypoxia; lowest concentration screened; annexin V-positive cells; FIG. 6
Method: Neonatal rat cardiomyocytes were treated with individual metabolites previously identified using planned MI metabolomics. In the first, metabolites that are increased in the peripheral blood and/or the coronary sinus samples were prioritized. Neonatal cardiomyocytes were isolated from 1-day old rats, cultured for three days, and then challenged in a hypoxia chamber (<0.5% O2, 95% nitrogen and 5% CO2 at 37° C.) for 3 hours, as previously described.^18 Baseline apoptosis is typically ˜10%, which increases to ˜30% following hypoxic challenge, as assessed by FITC-conjugated annexin V staining. Metabolites at the indicated concentrations were added to experimental plates 5 minutes prior to the onset of hypoxia. Metabolites were examined at ˜2 fold reported blood concentrations (where available), as well as at one log increased concentration (see also Human Metabolomics Database, HMDB, at http://www.hmdb.ca). 30 minutes after reoxygenation, the number of annexin V-positive cells per five HPF was counted from n=3 culture plates. The data depicted represent the percent change in apoptosis relative to the hypoxia control for the lowest concentration of each metabolite screened. (*P<0.05 by unpaired student's t test). […] Accordingly, one would seek to inhibit the metabolite in question as part of treatment or prevention scheme.
Accordingly, one would seek to administer the metabolite in question as part of treatment or prevention scheme. Such metabolites include, according to FIG. 6, G3P, inosine, malonic acid, TMNO, and orotic acid. Alternatively, one could administer a compound that upregulates a pathway that results in the production of the metabolite in question.

SMILES	Mean % change in apoptosis vs. hypoxia control
O=P(O)(O)OCC(O)CO (stereo not drawn) [Glycerol-3-P, glycerol-3-phosphate]	reduces cell death
O=c1[nH]cnc2nc[nH]c12 [Hypoxanthine]	potentiates cell death
OC[C@H]1O[C@@H](n2cnc3c(O)ncnc32)[C@H](O)[C@@H]1O [Inosine]	reduces cell death
O=C(O)CC(=O)O [Malonic Acid]	reduces cell death
O=C(O)c1cc(=O)[nH]c(=O)[nH]1 [Orotic Acid]	reduces cell death
O=C(O)CCC(=O)O [Succinic Acid]	potentiates cell death
NCCS(=O)(=O)O [Taurine]	potentiates cell death
C[N+](C)(C)[O-] [Trimethylamine-N-Oxide]	reduces cell death
